± gives the expanded uncertainty stated by the source.
What was measured:
[1] = refractive index (Na D-line) (dimensionless); xn = mol fraction of the nth substance listed; conditions: 101 kPa, Liquid, Standard Abbe refractometry
[2] = xn = mol fraction of the nth substance listed; conditions: 298.15 K, 101 kPa, Liquid; for speed of sound: Pulse-echo method

Cc1cccc(Cl)c1 [3-chlorotoluene] + CCCCCCCCCCO
refractive index, [1]
Conditions	298.15 K	303.15 K	308.15 K
x1 = 0.0745	1.4371 ± 0.0005	1.4353 ± 0.0005	1.4334 ± 0.0005
x1 = 0.1337	1.4394 ± 0.0005	1.4378 ± 0.0005	1.436 ± 0.0005
x1 = 0.2017	1.4424 ± 0.0005	1.4408 ± 0.0005	1.4391 ± 0.0005
x1 = 0.2741	1.446 ± 0.0005	1.4445 ± 0.0005	1.443 ± 0.0005
x1 = 0.3471	1.4501 ± 0.0005	1.4488 ± 0.0005	1.4473 ± 0.0005
x1 = 0.4139	1.4545 ± 0.0005	1.4533 ± 0.0005	1.4518 ± 0.0005
x1 = 0.4616	1.4579 ± 0.0005	1.4567 ± 0.0005	1.4553 ± 0.0005
x1 = 0.5532	1.4653 ± 0.0005	1.4641 ± 0.0005	1.4628 ± 0.0005
x1 = 0.6282	1.4723 ± 0.0005	1.4711 ± 0.0005	1.4697 ± 0.0005
x1 = 0.6772	1.4772 ± 0.0005	1.4761 ± 0.0005	1.4747 ± 0.0005
x1 = 0.7447	1.4847 ± 0.0005	1.4835 ± 0.0005	1.482 ± 0.0005
x1 = 0.8245	1.4947 ± 0.0005	1.4932 ± 0.0005	1.4917 ± 0.0005
x1 = 0.8876	1.5034 ± 0.0005	1.5017 ± 0.0005	1.5 ± 0.0005
x1 = 0.9433	1.5117 ± 0.0005	1.5099 ± 0.0005	1.5082 ± 0.0005
x1 = 1	1.5207 ± 0.0005	1.5189 ± 0.0005	1.5169 ± 0.0005

[2]
Conditions	mass density [kg/m3]	speed of sound [m/s]	viscosity [mPa·s]
x1 = 0.0745	837.98 ± 0.41	1371.6 ± 1.3	10.08 ± 0.097
x1 = 0.1337	847.61 ± 0.4	1364.4 ± 1.3	8.723 ± 0.086
x1 = 0.2017	859.18 ± 0.38	1356 ± 1.3	7.28 ± 0.074
x1 = 0.2741	872.19 ± 0.36	1347 ± 1.3	5.927 ± 0.063
x1 = 0.3471	886.08 ± 0.34	1338 ± 1.3	4.762 ± 0.053
x1 = 0.4139	899.55 ± 0.33	1329.9 ± 1.3	3.862 ± 0.044
x1 = 0.4616	909.68 ± 0.31	1324.3 ± 1.3	3.322 ± 0.038
x1 = 0.5532	930.44 ± 0.28	1314.9 ± 1.3	2.496 ± 0.029
x1 = 0.6282	948.88 ± 0.26	1308.1 ± 1.3	1.985 ± 0.023
x1 = 0.6772	961.72 ± 0.24	1304.1 ± 1.3	1.724 ± 0.021
x1 = 0.7447	980.55 ± 0.21	1300 ± 1.3	1.429 ± 0.017
x1 = 0.8245	1004.78 ± 0.2	1296.6 ± 1.3	1.17 ± 0.015
x1 = 0.8876	1025.62 ± 0.23	1296.2 ± 1.3	1.016 ± 0.013
x1 = 0.9433	1045.43 ± 0.26	1297.1 ± 1.3	0.906 ± 0.012
x1 = 1	1067.29 ± 0.29	1298.3 ± 1.3	0.798 ± 0.011
